Patent publication US20260007684A1, “AMIDE DERIVATIVES FOR INHIBITING NLRP3 AND USES THEREOF” (Ventus Therapeutics U.S., Inc., priority 2023, published 2026)
Like-named read-outs stand apart in the source and are kept apart here.

Columns and labels:
human NLRP3 [1] = biological target: T1, human NLRP3 (Homo sapiens (Human), UniProt Q96P20); experiment: Scintillation Proximity (SPA) NLRP3 Assay: displacement of 3H-MCC950; assay type: binding; conditions: for IC50: read-out: SPA IC50
human NLRP3 [2] = biological target: T1, human NLRP3; experiment: Human PBMC NLRP3 Assay (LPS priming, ATP stimulation, cytokine measurement); assay type: cell-based
human NLRP3 [3] = biological target: T1, human NLRP3; experiment: Human Whole Blood (hWB) NLRP3 Assay (LPS/ATP, IL-1β); assay type: cell-based
mouse NLRP3 = mouse NLRP3 (Mus musculus (Mouse), UniProt Q8R4B8); experiment: Mouse Whole Blood (mWB) NLRP3 Assay (LPS/ATP, IL-1b); assay type: cell-based
Method: Reagents: The following reagents were used: blood collection tubes (Heparin); U-bottom 96-well tissue culture (Falcon 353077); HBSS for LPS, ATP and compound dilutions (Gibco 24020-117); and LPS, E. coli serotype 026:B6 (Sigma L-2654).
Mouse IL-1b MSD assay: Blood was drawn from female CD1 mice (9 to 10 weeks) by cardiac puncture. Blood was plated (135 μL) per well in 96-well U-bottom plates. 7.5 μL of 20×LPS (20 μg/mL, final concentration of 1 μg/mL) was added and mixed by gentle pipetting, and the mixture was incubated in a TC incubator for five hours. 7.5 μL of 20× compound or vehicle per well was added and mixed by gentle pipetting. Compounds were diluted 1/50 in HBSS to prepare a 20× dilution curve in […].
The mixture was incubated for 30 minutes in a TC incubator with shaking (450 rpm). 5 μl of 31×ATP (155 mM, final concentration of 5 mM) was added and mixed by gentle pipetting. The mixture was incubated in a TC incubator for 30 minutes with shaking (450 rpm). The plate was centrifuged for 10 minutes at 800×g and −70 μL of plasma was removed. Plasma was frozen if required. Mouse IL-1b was analyzed with IL-1b MSD assay (K152TUK).
Compounds were added 30 minutes before priming the cells with LPS when TNFα was required to be quantified in the cytokine panel to confirm selectivity.

[4] = relative to Comparative Example A*
[5] = human PBMC, LPS priming, ATP stimulation, read-out: PBMC IC50
[6] = human whole blood, LPS/ATP, IL-1β, read-out: hWB IC50
[7] = mouse whole blood, LPS/ATP, IL-1b
[8] = PBMC IC50, human PBMC, LPS priming, ATP stimulation
[9] = hWB IC50, human whole blood, LPS/ATP, IL-1β

T1 sequence (Q96P20 whole entry): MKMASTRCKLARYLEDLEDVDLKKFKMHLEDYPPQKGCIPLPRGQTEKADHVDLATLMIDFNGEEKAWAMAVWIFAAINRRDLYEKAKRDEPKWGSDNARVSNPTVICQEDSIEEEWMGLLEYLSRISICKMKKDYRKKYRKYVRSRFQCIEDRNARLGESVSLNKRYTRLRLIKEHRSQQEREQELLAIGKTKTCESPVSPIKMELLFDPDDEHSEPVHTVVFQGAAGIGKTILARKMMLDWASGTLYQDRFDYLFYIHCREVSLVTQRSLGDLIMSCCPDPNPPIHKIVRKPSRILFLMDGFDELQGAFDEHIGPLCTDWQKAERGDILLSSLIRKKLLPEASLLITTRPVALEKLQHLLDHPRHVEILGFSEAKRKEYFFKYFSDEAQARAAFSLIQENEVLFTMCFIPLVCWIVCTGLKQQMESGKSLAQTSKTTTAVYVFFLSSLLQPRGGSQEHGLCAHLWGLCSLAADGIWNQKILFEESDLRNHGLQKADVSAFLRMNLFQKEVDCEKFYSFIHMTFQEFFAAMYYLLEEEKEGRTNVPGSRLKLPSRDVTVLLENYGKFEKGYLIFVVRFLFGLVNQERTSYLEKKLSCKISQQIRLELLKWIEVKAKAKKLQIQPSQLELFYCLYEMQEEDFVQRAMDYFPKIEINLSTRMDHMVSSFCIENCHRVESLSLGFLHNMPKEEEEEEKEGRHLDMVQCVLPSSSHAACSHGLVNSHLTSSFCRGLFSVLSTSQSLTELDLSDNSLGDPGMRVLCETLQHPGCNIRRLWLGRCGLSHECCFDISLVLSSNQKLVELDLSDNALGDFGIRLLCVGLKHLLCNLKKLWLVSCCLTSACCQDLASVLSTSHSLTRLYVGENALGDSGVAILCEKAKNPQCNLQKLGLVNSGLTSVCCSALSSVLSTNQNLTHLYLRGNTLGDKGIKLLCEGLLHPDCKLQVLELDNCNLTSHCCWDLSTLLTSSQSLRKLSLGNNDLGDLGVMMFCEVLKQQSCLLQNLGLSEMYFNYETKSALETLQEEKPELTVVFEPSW
Chain of mouse NLRP3 (Q8R4B8 whole entry): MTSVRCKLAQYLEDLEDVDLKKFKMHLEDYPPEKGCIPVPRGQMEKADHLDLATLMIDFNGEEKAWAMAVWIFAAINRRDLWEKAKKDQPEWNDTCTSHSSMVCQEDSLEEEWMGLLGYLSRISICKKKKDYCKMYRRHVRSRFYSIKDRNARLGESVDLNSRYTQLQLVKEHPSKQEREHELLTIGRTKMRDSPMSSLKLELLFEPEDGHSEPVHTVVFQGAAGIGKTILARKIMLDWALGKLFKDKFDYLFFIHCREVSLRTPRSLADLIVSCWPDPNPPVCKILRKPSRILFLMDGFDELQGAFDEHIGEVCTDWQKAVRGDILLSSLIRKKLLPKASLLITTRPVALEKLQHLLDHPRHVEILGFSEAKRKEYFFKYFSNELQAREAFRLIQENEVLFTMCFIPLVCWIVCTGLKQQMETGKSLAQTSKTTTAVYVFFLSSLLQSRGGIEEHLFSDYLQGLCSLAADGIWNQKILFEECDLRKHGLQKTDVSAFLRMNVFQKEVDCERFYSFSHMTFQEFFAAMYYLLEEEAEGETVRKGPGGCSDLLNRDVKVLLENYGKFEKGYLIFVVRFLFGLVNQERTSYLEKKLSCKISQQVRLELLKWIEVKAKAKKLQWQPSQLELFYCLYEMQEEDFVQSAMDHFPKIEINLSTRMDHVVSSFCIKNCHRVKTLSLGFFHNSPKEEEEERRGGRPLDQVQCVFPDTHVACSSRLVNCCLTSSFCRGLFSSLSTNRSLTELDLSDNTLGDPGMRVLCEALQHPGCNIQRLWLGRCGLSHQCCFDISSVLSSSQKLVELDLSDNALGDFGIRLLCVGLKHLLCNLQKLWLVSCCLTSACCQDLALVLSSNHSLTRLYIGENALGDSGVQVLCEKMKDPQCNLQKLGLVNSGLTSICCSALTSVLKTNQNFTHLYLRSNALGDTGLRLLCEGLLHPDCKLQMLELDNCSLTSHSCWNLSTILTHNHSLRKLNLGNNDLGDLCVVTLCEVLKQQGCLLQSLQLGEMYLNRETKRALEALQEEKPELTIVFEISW

Row | IC50 (human NLRP3 [1]; displacement of 3H-MCC950) | IC50 (human NLRP3 [2]; [5]) | IC50 (human NLRP3 [3]; [6]) | IC50 (mouse NLRP3; [7]) | SMILES | also measured
1 | 1 to 10 µM | > 0.5 µM | > 3 µM | 1 to 2 µM | O=C(N[C@@H]1CCCN(c2nnn[nH]2)C1)C1(c2ccc(Cl)cc2)CC1 [Compound 10A, (R)-N-(1-(1H-tetrazol-5-yl)piperidin-3-yl)-1-(4-chlorophenyl)cyclopropane-1-carboxamide] | IC50 (human NLRP3 [1]): 9.5 µM; fold increase in binding activity (SPA IC50) (human NLRP3 [1]; [4]): > 40 fold; IC50 (human NLRP3 [2]; read-out: PBMC IC50): 2.1 µM; fold increase in potency as measured by PBMC IC50 (human NLRP3 [2]; relative to Comparative Example F): 4 fold; fold increase in potency as measured by PBMC IC50 (human NLRP3 [2]; relative to Comparative Example G): > 47 fold; fold increase in potency as measured by PBMC IC50 (human NLRP3 [2]; relative to Comparative Example H): 5 fold; fold increase in potency as measured by PBMC IC50 (human NLRP3 [2]; relative to Comparative Example J1): > 47 fold; fold increase in potency as measured by PBMC IC50 (human NLRP3 [2]; relative to Comparative Example J2): > 47 fold; IC50 (human NLRP3 [3]; read-out: hWB IC50): 7.3 µM; fold increase in potency as measured by hWB IC50 (human NLRP3 [3]; [4]): > 6 fold; IC50 (mouse NLRP3): 1.9 µM; fold increase in potency as measured by mWB IC50 (mouse NLRP3; relative to Comparative Example B1): 26 fold
2 | 1 to 10 µM |  | 1 to 2 µM | 1 to 2 µM | O=C(N[C@@H]1CCCN(c2nnn[nH]2)C1)C1(c2ccc(Br)cc2)CC1 [Compound 39A, 1-(4-bromophenyl)-N-[(3R)-1-(1H-tetrazol-5-yl)-3-piperidyl]cyclopropanecarboxamide] | 
3 | 1 to 10 µM | 0.01 to 0.1 µM | < 1 µM | 1 to 2 µM | O=C(N[C@@H]1CCCCN(c2nnn[nH]2)C1)C1(c2ccc(Cl)cc2)CC1 [Compound 51A, 1-(4-chlorophenyl)-N-[(3R)-1-(1H-tetrazol-5-yl)azepan-3-yl]cyclopropanecarboxamide] | IC50 (human NLRP3 [1]): 2.2 µM; fold increase in binding activity (SPA IC50) (human NLRP3 [1]; relative to Compound 10A): > 4 fold; IC50 (human NLRP3 [2]; read-out: PBMC IC50): 0.044 µM; fold increase in potency as measured by PBMC IC50 (human NLRP3 [2]; relative to Compound 10A): 48 fold; IC50 (human NLRP3 [3]; read-out: hWB IC50): 0.72 µM; fold increase in potency as measured by hWB IC50 (human NLRP3 [3]; relative to Compound 10A): > 10 fold; IC50 (mouse NLRP3): 1.8 µM
4 | < 1 µM | < 0.01 µM | < 1 µM | < 1 µM | C[C@H]1C[C@@H](NC(=O)C2(c3ccc(Cl)cc3O)CC2)CN(c2nnn[nH]2)C1 [Compound 47A, 1-(4-chloro-2-hydroxyphenyl)-N-((3R,5S)-5-methyl-1-(1H-tetrazol-5-yl)piperidin-3-yl)cyclopropane-1-carboxamide] | IC50 (human NLRP3 [1]): 0.048 µM; fold increase in binding activity (SPA IC50) (human NLRP3 [1]; relative to Compound 46A): 18 fold; IC50 (human NLRP3 [2]; read-out: PBMC IC50): 0.0067 µM; fold increase in potency as measured by PBMC IC50 (human NLRP3 [2]; relative to Compound 46A): 15 fold; IC50 (human NLRP3 [3]; read-out: hWB IC50): 0.22 µM; fold increase in potency as measured by hWB IC50 (human NLRP3 [3]; relative to Compound 46A): > 11 fold; IC50 (mouse NLRP3): 0.035 µM; fold increase in potency as measured by mWB IC50 (mouse NLRP3; relative to Compound 46A): 4.9 fold
5 | 1 to 10 µM |  | 2 to 3 µM | < 1 µM | O=C(N[C@@H]1C[C@H](C(F)(F)F)CN(c2nnn[nH]2)C1)C1(c2ccc(Cl)cc2)CC1 [Compound 45A, 1-(4-chlorophenyl)-N-[(3R,5S)-1-(1H-tetrazol-5-yl)-5-(trifluoromethyl)-3-piperidyl]cyclopropanecarboxamide] | 
6 | < 1 µM | < 0.01 µM | < 1 µM | < 1 µM | C[C@H]1C[C@@H](NC(=O)C2(c3ccc(C(F)(F)F)cc3O)CC2)CN(c2nnn[nH]2)C1 [Compound 16A, 1-(2-hydroxy-4-(trifluoromethyl)phenyl)-N-((3R,5S)-5-methyl-1-(1H-tetrazol-5-yl)piperidin-3-yl)cyclopropane-1-carboxamide] | IC50 (human NLRP3 [1]): 0.041 µM; IC50 (human NLRP3 [2]; read-out: PBMC IC50): 0.0043 µM; IC50 (human NLRP3 [3]; read-out: hWB IC50): 0.061 µM; IC50 (mouse NLRP3): 0.082 µM
7 |  |  |  |  | O=C(Nc1cccc(-c2nnn[nH]2)c1)C1(c2ccc(Cl)cc2)CC1 [Comparative Example B1, N-(3-(1H-tetrazol-5-yl)phenyl)-1-(4-chlorophenyl)cyclopropane-1-carboxamide, reference compound] | IC50 (human NLRP3 [1]): 8 µM; IC50 (human NLRP3 [2]; read-out: PBMC IC50): 0.48 µM; IC50 (mouse NLRP3): > 50 µM
8 | < 1 µM | < 0.01 µM | < 1 µM | < 1 µM | C[C@@H]1CCN(c2nnn[nH]2)C[C@H](NC(=O)C2(c3ccc(Cl)cc3)CC2)C1 (single isomer, unassigned) [12A*, 1-(4-chlorophenyl)-N-(5-methyl-1-(1H-tetrazol-5-yl)azepan-3-yl)cyclopropane-1-carboxamide] | 
9 | < 1 µM | 0.1 to 0.5 µM |  | < 1 µM | C[C@H]1C[C@@H](NC(=O)C2(c3c(O)cc(C4CC4)cc3C(F)F)CC2)CN(c2nnn[nH]2)C1 (single isomer, unassigned) [97A*] | 
10 | < 1 µM | 0.01 to 0.1 µM | 2 to 3 µM | < 1 µM | C[C@H]1C[C@@H](NC(=O)C2(c3ccc(Cl)cc3)CC2)CN(c2nnn[nH]2)C1 [Compound 46A, 1-(4-chlorophenyl)-N-((3R,5S)-5-methyl-1-(1H-tetrazol-5-yl)piperidin-3-yl)cyclopropane-1-carboxamide] | IC50 (human NLRP3 [1]): 0.86 µM; fold increase in binding activity (SPA IC50) (human NLRP3 [1]; relative to Compound 10A): 11 fold; IC50 (human NLRP3 [2]; read-out: PBMC IC50): 0.1 µM; fold increase in potency as measured by PBMC IC50 (human NLRP3 [2]; relative to Compound 10A): 21 fold; IC50 (human NLRP3 [3]; read-out: hWB IC50): 2.5 µM; fold increase in potency as measured by hWB IC50 (human NLRP3 [3]; relative to Compound 10A): 3 fold; IC50 (mouse NLRP3): 0.17 µM; fold increase in potency as measured by mWB IC50 (mouse NLRP3; relative to Compound 10A): 11 fold
11 | 1 to 10 µM | 0.1 to 0.5 µM | 2 to 3 µM | 2 to 3 µM | C[C@H]1CCN(c2nnn[nH]2)C[C@@H]1NC(=O)C1(c2ccc(Cl)cc2)CC1 [Compound 49C, 1-(4-chlorophenyl)-N-[(3R,4S)-4-methyl-1-(1H-tetrazol-5-yl)-3-piperidyl]cyclopropanecarboxamide] | 
12 | < 1 µM | 0.01 to 0.1 µM | < 1 µM |  | C[C@@H]1CCN(c2nnn[nH]2)C[C@@H](NC(=O)C2(c3ccc(Cl)cc3O)CC2)C1 (single isomer, unassigned) [60B*] | 
13 | < 1 µM | 0.01 to 0.1 µM | < 1 µM |  | C[C@H]1C[C@@H](NC(=O)C2(c3ccc(C4CC4)cc3O)CC2)CN(c2nnn[nH]2)C1 [Compound 23A, 1-(4-cyclopropyl-2-hydroxyphenyl)-N-((3R,5S)-5-methyl-1-(1H-tetrazol-5-yl)piperidin-3-yl)cyclopropane-1-carboxamide] | 
14 | < 1 µM | 0.1 to 0.5 µM | > 3 µM |  | C[C@H]1C[C@@H](NC(=O)C2(c3ncc(C(F)(F)F)cc3O)CC2)CN(c2nnn[nH]2)C1 [Compound 25A, 1-(3-hydroxy-5-(trifluoromethyl)pyridin-2-yl)-N-((3R,5S)-5-methyl-1-(1H-tetrazol-5-yl)piperidin-3-yl)cyclopropane-1-carboxamide] | 
15 | < 1 µM |  | < 1 µM | < 1 µM | O=C(N[C@H]1CN(c2nnn[nH]2)CCC(F)(F)C1)C1(c2ccc(Cl)cc2)CC1 (single isomer, unassigned) [53A*] | 
16 | < 1 µM | < 0.01 µM | < 1 µM |  | C[C@@H]1CCN(c2nnn[nH]2)C[C@H](NC(=O)C2(c3ccc(Br)cc3)CC2)C1 (single isomer, unassigned) [59A*] | 
17 | < 1 µM | < 0.01 µM | < 1 µM |  | C[C@@H]1CCN(c2nnn[nH]2)C[C@H](NC(=O)C2(c3ccc(Cl)cc3O)CC2)C1 (single isomer, unassigned) [60A*] | 
18 | < 1 µM | < 0.01 µM | > 3 µM |  | C[C@@H]1CCN(c2nnn[nH]2)C[C@H](NC(=O)C2(c3c(F)cc(Cl)cc3F)CC2)C1 (single isomer, unassigned) [72A*] | 
19 | < 1 µM | 0.01 to 0.1 µM | 1 to 2 µM |  | O=C(N[C@@H]1CCCCCN(c2nnn[nH]2)C1)C1(c2ccc(Cl)cc2)CC1 (single isomer, unassigned) [14A*, N-(1-(1H-tetrazol-5-yl)azocan-3-yl)-1-(4-chlorophenyl)cyclopropane-1-carboxamide] | 

Row | SMILES | IC50 (human NLRP3 [1]; displacement of 3H-MCC950) | IC50 (human NLRP3 [2]; [5]) | IC50 (human NLRP3 [3]; [6]) | IC50 (mouse NLRP3; [7]) | also measured
20 | O=C(N[C@@H]1CC[C@H]2CC[C@@H]1N2c1nnn[nH]1)C1(c2ccc(C(F)(F)F)cc2O)CC1 (single isomer, unassigned) [34C*] | < 1 µM |  |  | < 1 µM | IC50 (human NLRP3 [2]; [8]): 0.01 to 0.1 µM; IC50 (human NLRP3 [3]; [9]): < 1 µM
21 | C[C@@H]1C[C@@H](NC(=O)C2(c3ccc(C4CC4)cc3)CC2)[C@H]2CC[C@@H]1N2c1nnn[nH]1 [81A*, 1-(4-cyclopropylphenyl)-N-((1R,2R,4R,5S)-4-methy1-8-(1H-tetrazol-5-yl)-8-azabicyclo[3.2.1]octan-2-yl)cyclopropane-1-carboxamide] | < 1 µM |  |  |  | IC50 (human NLRP3 [2]; [8]): 0.01 to 0.1 µM; IC50 (human NLRP3 [3]; [9]): < 1 µM
22 | C[C@@H]1C[C@@H](NC(=O)C2(c3ccc(C(F)(F)F)cc3F)CC2)[C@H]2CC[C@@H]1N2c1nnn[nH]1 [84A*, 1-(2-fluoro-4-(trifluoromethyl)phenyl)-N-((1R,2R,4R,5S)-4-methyl-8-(1H-tetrazol-5-yl)-8-azabicyclo[3.2.1]octan-2-yl)cyclopropane-1-carboxamide] | < 1 µM |  |  |  | IC50 (human NLRP3 [2]; [8]): < 0.01 µM; IC50 (human NLRP3 [3]; [9]): < 1 µM
